Source: ChEMBL document CHEMBL5223093, “Recent advances in the discovery of protein tyrosine phosphatase SHP2 inhibitors” (RSC Med Chem, 2022)

Experiments:
[1] = Downregulation of DUSP6 transcription in human KYSE-520 cells at 30 uM measured after 2 hrs relative to control; type: functional
[2] = target: T1, Tyrosine-protein phosphatase non-receptor type 11 (Homo sapiens, UniProt Q06124); experiment: Inhibition of full length SHP2 (unknown origin) using DiFMUP as substrate preincubated for 30 mins followed by substrate addition
T1 sequence (Q06124 whole entry): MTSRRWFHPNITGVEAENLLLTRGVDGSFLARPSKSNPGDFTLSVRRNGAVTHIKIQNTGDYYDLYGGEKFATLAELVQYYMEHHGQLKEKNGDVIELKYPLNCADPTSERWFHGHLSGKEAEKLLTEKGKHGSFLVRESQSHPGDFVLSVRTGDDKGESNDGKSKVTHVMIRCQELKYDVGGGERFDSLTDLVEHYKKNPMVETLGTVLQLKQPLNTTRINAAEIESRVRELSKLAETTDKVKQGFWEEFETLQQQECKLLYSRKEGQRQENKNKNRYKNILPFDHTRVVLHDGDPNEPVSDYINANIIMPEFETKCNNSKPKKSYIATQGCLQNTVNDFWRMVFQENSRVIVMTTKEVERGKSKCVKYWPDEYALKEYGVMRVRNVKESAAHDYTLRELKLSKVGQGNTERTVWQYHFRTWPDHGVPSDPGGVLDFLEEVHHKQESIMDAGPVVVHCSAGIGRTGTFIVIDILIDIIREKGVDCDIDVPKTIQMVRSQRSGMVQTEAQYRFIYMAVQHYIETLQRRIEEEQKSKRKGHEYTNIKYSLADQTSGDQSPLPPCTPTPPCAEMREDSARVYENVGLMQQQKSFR

SMILES	Activity [1]	IC50 [2]
COc1cccc(-c2nnc3n(Cc4ccccc4Cl)c(=O)c4ccccc4n23)c1O	65%	–
O=C(O)c1ccc(O)c(-c2nnc3n(Cc4ccccc4Cl)c(=O)c4ccccc4n23)c1	55%	–
COc1cccc(-c2nnc3n(Cc4ccc(C(=O)N5CCC[C@H]5C(=O)O)cc4Cl)c(=O)c4ccccc4n23)c1O	43%	–
Cc1nc(N2CCC3(CC2)OC[C@@H](C)[C@H]3N)c(CO)nc1-c1cccc(Cl)c1Cl	–	0.583 nM
